Data published in ChEMBL document CHEMBL1147942, “Dual M3 antagonists-PDE4 inhibitors. Part 2: Synthesis and SAR of 3-substituted azetidinyl derivatives” (Bioorg Med Chem Lett, 2007).
Calls of active or inactive are those of the source. The rule behind the calls is not given here.

Experiments:
[1] = molecular target: T1, Phosphodiesterase 4 (Homo sapiens, UniProt P27815+Q08499+Q07343+Q08493); assay: Inhibition of PDE4 in U937 cells; assay type: cell-based; conditions: u-937
[2] = Dissociation constant, pKa of the compound; assay type: physicochemical
[3] = molecular target: Muscarinic acetylcholine receptor M3 (Homo sapiens, UniProt P20309); assay: Displacement of [3H]N-methylscopolamine from human recombinant M3 muscarinic receptor expressed in CHO cell membrane; assay type: cell membranes
[4] = molecular target: T1, Phosphodiesterase 4; assay: Inhibition of PDE4 in U937 cells at high-affinity rolipram binding state; assay type: cell-based; conditions: u-937
[5] = organism: Cavia porcellus; conditions: Trachea
Description: Activity at PDE4 in guinea pig assessed as effect on LTD4-induced trachea contraction

[6] = Inhibition of fMLP-induced elastase release from human PMN cells; assay type: functional, cell-based
[7] = molecular target: Muscarinic acetylcholine receptor M3 (Cavia porcellus, UniProt Q8VH26); assay: Activity at M3 muscarinic receptor in guinea pig assessed as effect on carbachol-induced trachea contraction
[8] = molecular target: T1, Phosphodiesterase 4; assay: Inhibition of PDE4 in U937 cells at 10 uM; assay type: cell-based; conditions: U-937
[9] = organism: Mus musculus; assay: Inhibition of mKC cells in BALB/c mouse at 10 mg/ml, nose-only aerosol for 15 mins; assay type: functional, organism-based
[10] = organism: Mus musculus; assay: Inhibition of BALF cells in BALB/c mouse at 10 mg/ml, nose-only aerosol for 15 mins; assay type: functional, organism-based
[11] = organism: Mus musculus; assay: Inhibition of PMN cells in BALB/c mouse at 10 mg/ml, nose-only aerosol for 15 mins; assay type: functional, organism-based

Chain of Muscarinic acetylcholine receptor M3 (Homo sapiens, UniProt P20309) (P20309 whole entry): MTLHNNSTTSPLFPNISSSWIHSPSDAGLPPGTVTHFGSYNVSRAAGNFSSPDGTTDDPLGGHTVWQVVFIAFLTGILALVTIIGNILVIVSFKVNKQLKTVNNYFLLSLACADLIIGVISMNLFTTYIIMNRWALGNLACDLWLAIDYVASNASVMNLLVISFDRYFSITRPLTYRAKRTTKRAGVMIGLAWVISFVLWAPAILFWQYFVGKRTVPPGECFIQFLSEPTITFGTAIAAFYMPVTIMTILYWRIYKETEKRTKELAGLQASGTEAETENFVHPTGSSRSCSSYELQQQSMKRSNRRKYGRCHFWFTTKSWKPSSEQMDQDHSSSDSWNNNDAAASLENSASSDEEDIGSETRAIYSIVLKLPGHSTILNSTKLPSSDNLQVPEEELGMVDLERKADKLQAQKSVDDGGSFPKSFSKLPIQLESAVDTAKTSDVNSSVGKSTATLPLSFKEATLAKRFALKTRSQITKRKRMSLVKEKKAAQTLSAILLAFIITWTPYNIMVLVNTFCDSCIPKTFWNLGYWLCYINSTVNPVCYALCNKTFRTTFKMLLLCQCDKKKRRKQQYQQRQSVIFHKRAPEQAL
Chain of Muscarinic acetylcholine receptor M3 (Cavia porcellus, UniProt Q8VH26) (Q8VH26 whole entry): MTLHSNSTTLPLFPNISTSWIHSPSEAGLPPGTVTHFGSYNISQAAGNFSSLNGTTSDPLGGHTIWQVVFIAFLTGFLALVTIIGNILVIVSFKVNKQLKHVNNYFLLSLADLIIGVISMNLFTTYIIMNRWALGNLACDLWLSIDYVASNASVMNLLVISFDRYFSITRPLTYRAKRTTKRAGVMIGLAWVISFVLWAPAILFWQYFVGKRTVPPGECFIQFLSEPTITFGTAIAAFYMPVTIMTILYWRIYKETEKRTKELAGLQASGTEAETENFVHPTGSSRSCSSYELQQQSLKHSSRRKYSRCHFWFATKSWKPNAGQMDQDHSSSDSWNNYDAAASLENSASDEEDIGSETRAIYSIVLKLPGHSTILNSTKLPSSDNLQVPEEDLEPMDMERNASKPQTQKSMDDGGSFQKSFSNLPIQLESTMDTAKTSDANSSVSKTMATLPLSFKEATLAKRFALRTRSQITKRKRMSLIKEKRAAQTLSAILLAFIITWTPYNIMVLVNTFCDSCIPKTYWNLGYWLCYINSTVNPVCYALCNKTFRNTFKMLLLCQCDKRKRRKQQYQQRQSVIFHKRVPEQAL

SMILES	IC50 [1] [nM]	pKa [2]	Ki [3] [nM]	further results
Cc1c(N2CCCCCC2)nc(C2CC2)nc1N1CC(C#N)C1	1000	6.4	794	
Cc1c(N2CCCCCC2)nc(C2CC2)nc1N1CC(F)C1	79	6.6	200	Log Ki [4]: -6; Log IC50 [1]: -7.3; pD2 [5]: 7.4; IC50 [6]: 380 nM
Cc1c(N2CCCCCC2)nc(C2CC2)nc1N1CC(C)(C)C1	5000	7	32	
Cc1c(N2CCCCCC2)nc(C2CC2)nc1N1CCC1	320	7.1	16	Log Ki [4]: -5.3; Log IC50 [1]: -6.6; Kb [7]: 1000 nM; IC50 [6]: 190 nM
Cc1c(N2CCCCCC2)nc(C2CC2)nc1N1CCCCC1			79	Activity [8]: inactive
Cc1c(N2CCCCCC2)nc(C2CC2)nc1N1CC(O)C1	630	7	158	
Cc1c(NC2CC2)nc(C2CC2)nc1N1CCCCCC1				Activity [9]: Dose-dependent effect; Activity [10]: Dose-dependent effect; pD2 [5]: 6.1; Activity [11]: Dose-dependent effect
c1c(N2CCCCCC2)nc(C2CC2)nc1N1CCC1	790	7.4	79	
Cc1c(N2CCCCCC2)nc(C2CC2)nc1N1CC(C)C1	790	8	20	
Cc1c(N2CCCCCC2)nc(C2CC2)nc1N1CCCC1	3200		1.3	
Cc1c(N2CCCCCC2)nc(C2CC2)nc1N1CCCCCC1			40	Activity [8]: inactive
Cc1c(N2CCCCCC2)nc(C2CC2)nc1N1CC(=O)C1	500	6.4	631	
FC1CN(c2cc(N3CCCCCC3)nc(C3CC3)n2)C1	200	6.9	501	
CC1CN(c2cc(N3CCCCCC3)nc(C3CC3)n2)C1	2000	7.5	13	
COC1CN(c2nc(C3CC3)nc(N3CCCCCC3)c2C)C1	4000	6.8	40	
